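Tested at 5 concentrations; 48 h exposure; 96-well plates; endpoints linearly interpolated, else capped at highest concentration. At the TGI there is no net growth.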
Experiments:
Assay in all cases: inhibition of tumour cell growth, NCI panel, 48 h
[1] = tested on: 786-0 renal
[2] = tested on: A549 NSCLC
[3] = tested on: ACHN renal
[4] = tested on: CAKI-1 renal
[5] = tested on: CCRF-CEM leukemia
[6] = tested on: COLO 205 colon
[7] = tested on: DU-145 prostate
[8] = tested on: EKVX NSCLC
[9] = tested on: HCC-2998 colon
[10] = tested on: HCT-116 colon
[11] = tested on: HCT-15 colon
[12] = tested on: HL-60(TB) leukemia
[13] = tested on: HOP-62 NSCLC
[14] = tested on: HS 578T breast
[15] = tested on: HT29 colon
[16] = tested on: IGROV1 ovarian
[17] = tested on: K-562 leukemia
[18] = tested on: KM12 colon
[19] = tested on: LOX IMVI melanoma
[20] = tested on: M14 melanoma
[21] = tested on: MALME-3M melanoma
[22] = tested on: MCF7 breast
[23] = tested on: MDA-MB-231 breast
[24] = tested on: MDA-MB-435
[25] = tested on: MDA-N
[26] = tested on: MOLT-4 leukemia
[27] = tested on: NCI-H226 lung
[28] = tested on: NCI-H23 lung
[29] = tested on: NCI-H460 lung
[30] = tested on: NCI-H522 lung
[31] = tested on: NCI/ADR-RES ovarian
[32] = tested on: OVCAR-3 ovarian
[33] = tested on: OVCAR-4 ovarian
[34] = tested on: OVCAR-5 ovarian
[35] = tested on: OVCAR-8 ovarian
[36] = tested on: PC-3 prostate
[37] = tested on: RPMI-8226 leukemia
[38] = tested on: RXF 393 renal
[39] = tested on: SF-268 CNS
[40] = tested on: SF-295 CNS
[41] = tested on: SF-539 CNS
[42] = tested on: SK-MEL-2 melanoma
[43] = tested on: SK-MEL-28 melanoma
[44] = tested on: SK-MEL-5 melanoma
[45] = tested on: SK-OV-3 ovarian
[46] = tested on: SN12C renal
[47] = tested on: SNB-19 CNS
[48] = tested on: SNB-75 CNS
[49] = tested on: SR leukemia
[50] = tested on: SW-620 colon
[51] = tested on: T-47D breast
[52] = tested on: TK-10 renal
[53] = tested on: U251 CNS
[54] = tested on: UACC-257 melanoma
[55] = tested on: UACC-62 melanoma
[56] = tested on: UO-31 renal
[57] = tested on: A498 renal
[58] = tested on: HOP-92 NSCLC

Measured: TGI

C=C1OC(=O)[C@]2([C@@H](/C=C/C)C=CC(=O)[C@H]2O)[C@@H]1O
> 100 µM: [1] | [2] | [3] | [4] | [5] | [6] | [7] | [8] | [9] | [10] | [11] | [12] | [13] | [14] | [15] | [16] | [17] | [18] | [19] | [20] | [21] | [22] | [23] | [24] | [25] | [26] | [27] | [28] | [29] | [30] | [31] | [32] | [33] | [34] | [35] | [36] | [37] | [38] | [39] | [40] | [41] | [42] | [43] | [44] | [45] | [46] | [47] | [48] | [49] | [50] | [51] | [52] | [53] | [54] | [55] | [56]

Cc1ccc(S(=O)(=O)N/N=C2\CC3C4C=CC3C2C4)cc1 (stereo unspecified)
40.2 µM: [56]
> 100 µM: [1] | [57] | [2] | [3] | [4] | [5] | [6] | [7] | [8] | [9] | [10] | [11] | [12] | [13] | [58] | [14] | [15] | [16] | [17] | [18] | [19] | [20] | [21] | [22] | [23] | [24] | [25] | [26] | [27] | [28] | [29] | [30] | [31] | [32] | [33] | [34] | [35] | [36] | [38] | [39] | [40] | [41] | [42] | [43] | [44] | [45] | [46] | [47] | [50] | [51] | [52] | [53] | [54] | [55]

— PubChem BioAssay (NCI)
